Assay results: PMC3433414, “Oral Administration of the Pimelic Diphenylamide HDAC Inhibitor HDACi 4b Is Unsuitable for Chronic Inhibition of HDAC Activity in the CNS In Vivo” (PLoS ONE, 2012)
Like-named read-outs stand apart in the source and are kept apart here.

Columns and labels:
[1] = Hepatic microsomal stability; assay type: in vitro ADME, mouse; details: for predicted in vivo plasma clearance: from mouse microsomal half-life; for half-life at 1 µM: pooled hepatic microsomes, pH 7.4, mouse
Method: Incubations of test compounds (1 µM initial concentration, n = 2) were carried out with pooled hepatic microsomes (0.25 mg protein/mL in 0.1 M phosphate buffer pH 7.4). NADPH (1 mM) was added to initiate the reactions. The incubations were performed at 37°C. Samples (100 µL) were taken from the incubation at 0, 5, 10, 20 and 40 min and added to 100 µL of acetonitrile containing carbamazepine as analytical internal standard, to terminate the reaction. Samples were centrifuged and the supernatant fractions analysed by LC-MS/MS. The instrument responses (i.e. chromatographic peak heights), normalized by internal standard response were referenced to the zero time-point samples (as 100%) in order to determine the percentage of compound remaining.
Ln plots of the % remaining, for each compound, were used to determine the half-life for the microsomal incubations.
Half-life values were calculated from the relationship. [drawing 2] where λ was the slope of the Ln concentration vs time curve.
The in vitro intrinsic clearance, CLint (µL/min/mg microsomal protein), was calculated using the following formula: [drawing 3]
When quantification was required, calibration standards for parent compound and metabolites were prepared in control hepatic microsomes and extracted and analysed as described for the study samples. Quantification of parent compound or metabolite was by extrapolation from the calibration line.

CCK1 (CCKA) (h) = target: T1, CCK1 (CCKA) (h) (Homo sapiens, UniProt P32238); assay: Cerep binding, agonist radioligand (CCK-8S); details: for inhibition at 10 µM: read-out: % inhibition of control specific binding
T1 construct: Cerep
T1 sequence (P32238 1-428): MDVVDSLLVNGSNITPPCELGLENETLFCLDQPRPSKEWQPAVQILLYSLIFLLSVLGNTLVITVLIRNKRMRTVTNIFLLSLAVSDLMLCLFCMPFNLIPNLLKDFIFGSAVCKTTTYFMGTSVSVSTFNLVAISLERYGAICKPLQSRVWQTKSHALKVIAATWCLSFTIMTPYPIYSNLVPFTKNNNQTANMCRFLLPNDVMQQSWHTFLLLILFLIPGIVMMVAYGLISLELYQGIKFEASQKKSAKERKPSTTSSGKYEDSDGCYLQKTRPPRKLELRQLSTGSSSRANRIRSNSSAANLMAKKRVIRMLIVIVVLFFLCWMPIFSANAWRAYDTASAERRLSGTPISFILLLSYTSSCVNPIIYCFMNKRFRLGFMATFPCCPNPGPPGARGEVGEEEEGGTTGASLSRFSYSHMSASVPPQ
From the text: (§1) In addition to the HDAC profiling performed, we also queried 4b for any apparent potential off-target effects, which could complicate any finding of efficacy or adverse events in vivo due to ‘polypharmacy’. This was accomplished by screening against a ‘diversity panel’ of 72 binding and 29 enzyme assays, comprised of roughly equal numbers of selective central and peripheral therapeutically relevant targets (Cerep Diversity Profile). This panel included representative targets from diverse enzyme families, G protein coupled receptors, steroid nuclear receptors, voltage- and ligand-gated ion channels. While not totally inclusive, it is a useful tool for discovery compounds to assess their viability as proof of concept molecules to specifically query a particular target. 4b was initially screened at 10 µM in duplicate. The full set of results is provided as Table S1. […] This clean in vitro profile was considered acceptable to proceed to ADME and pharmacokinetic studies.
Supplementary file pone.0044498.s001.tif: Figure S1 Displacement of CCK-8S (agonist radioligand) from the CCK1 receptor by 4b and C1. (TIF) Click here for additional data file.

NK3 (h) = target: T2, NK3 (h) (Homo sapiens, UniProt P29371); assay: Cerep binding, antagonist radioligand; details: read-out: % inhibition of control specific binding
T2 construct: purchased Cerep (Diversity Profile)
From the text: as §1

AT2 (h) = target: T3, AT2 (h) (Homo sapiens, UniProt P50052); assay: Cerep binding, agonist radioligand; details: read-out: % inhibition of control specific binding
T3 construct: purchased Cerep (Diversity Profile)
From the text: as §1

CCK2 (CCKB) (h) = target: T4, CCK2 (CCKB) (h) (Homo sapiens, UniProt P32239); assay: Cerep binding, agonist radioligand; details: read-out: % inhibition of control specific binding
T4 construct: purchased Cerep (Diversity Profile)
From the text: as §1

2 (h) = target: T5, 2 (h) (Homo sapiens, UniProt P07550); assay: Cerep binding, agonist radioligand; details: read-out: % inhibition of control specific binding
T5 construct: purchased Cerep (Diversity Profile)
From the text: as §1

MC4 (h) = target: T6, MC4 (h) (Homo sapiens, UniProt P32245); assay: Cerep binding, agonist radioligand; details: read-out: % inhibition of control specific binding
T6 construct: purchased Cerep (Diversity Profile)
From the text: as §1

PPAR (h) = target: T7, PPAR (h) (Homo sapiens, UniProt P37231); assay: Cerep binding, agonist radioligand; details: read-out: % inhibition of control specific binding
T7 construct: purchased Cerep (Diversity Profile)
From the text: as §1

PR (h) = target: T8, PR (h) (Homo sapiens, UniProt P06401); assay: Cerep binding, agonist radioligand; details: read-out: % inhibition of control specific binding
T8 construct: purchased Cerep (Diversity Profile)
From the text: as §1

A2A (h) = target: T9, A2A (h) (Homo sapiens, UniProt P29274); assay: Cerep binding, agonist radioligand; details: read-out: % inhibition of control specific binding
T9 construct: purchased Cerep (Diversity Profile)
From the text: as §1

BLT1 (LTB4) (h) = target: T10, BLT1 (LTB4) (h) (Homo sapiens, UniProt Q15722); assay: Cerep binding, agonist radioligand; details: read-out: % inhibition of control specific binding
T10 construct: purchased Cerep (Diversity Profile)
From the text: as §1

NK2 (h) = target: T11, NK2 (h) (Homo sapiens, UniProt P21452); assay: Cerep binding, agonist radioligand; details: read-out: % inhibition of control specific binding
T11 construct: purchased Cerep (Diversity Profile)
From the text: as §1

H3 (h) = target: T12, H3 (h) (Homo sapiens, UniProt Q9Y5N1); assay: Cerep binding, agonist radioligand; details: read-out: % inhibition of control specific binding
T12 construct: purchased Cerep (Diversity Profile)
From the text: as §1

CB1 (h) = target: T13, CB1 (h) (Homo sapiens, UniProt P21554); assay: Cerep binding, agonist radioligand; details: read-out: % inhibition of control specific binding
T13 construct: purchased Cerep (Diversity Profile)
From the text: as §1

TRH1 (h) = target: T14, TRH1 (h) (Homo sapiens, UniProt P34981); assay: Cerep binding, agonist radioligand; details: read-out: % inhibition of control specific binding
T14 construct: purchased Cerep (Diversity Profile)
From the text: as §1

CysLT1 (LTD4) (h) = target: T15, CysLT1 (LTD4) (h) (Homo sapiens, UniProt Q9Y271); assay: Cerep binding, agonist radioligand; details: read-out: % inhibition of control specific binding
T15 construct: purchased Cerep (Diversity Profile)
From the text: as §1

GABA (non‐selective) = assay: Cerep binding, agonist radioligand; details: 10 μM
From the text: as §1

V1a (h) = target: T16, V1a (h) (Homo sapiens, UniProt P37288); assay: Cerep binding, agonist radioligand; details: read-out: % inhibition of control specific binding
T16 construct: purchased Cerep (Diversity Profile)
From the text: as §1

V2 (h) = target: T17, V2 (h) (Homo sapiens, UniProt P30518); assay: Cerep binding, agonist radioligand; details: read-out: % inhibition of control specific binding
T17 construct: purchased Cerep (Diversity Profile)
From the text: as §1

CB2 (h) = target: T18, CB2 (h) (Homo sapiens, UniProt P34972); assay: Cerep binding, agonist radioligand; details: read-out: % inhibition of control specific binding
T18 construct: purchased Cerep (Diversity Profile)
From the text: as §1

EP2 (h) = target: T19, EP2 (h) (Homo sapiens, UniProt P43116); assay: Cerep binding, agonist radioligand; details: read-out: % inhibition of control specific binding
T19 construct: purchased Cerep (Diversity Profile)
From the text: as §1

A3 (h) = target: T20, A3 (h) (Homo sapiens, UniProt P0DMS8); assay: Cerep binding, agonist radioligand; details: read-out: % inhibition of control specific binding
T20 construct: purchased Cerep (Diversity Profile)
From the text: as §1

NK1 (h) = target: T21, NK1 (h) (Homo sapiens, UniProt P25103); assay: Cerep binding, agonist radioligand; details: read-out: % inhibition of control specific binding
T21 construct: purchased Cerep (Diversity Profile)
From the text: as §1

ER (non‐selective) (h) = assay: Cerep binding, agonist radioligand; set-up: species or system human; details: 10 μM
From the text: as §1

[2] = mouse, 1 µM, with NADPH, read-out: in vitro half-life in hepatic microsomes

T18 sequence (P34972 whole entry): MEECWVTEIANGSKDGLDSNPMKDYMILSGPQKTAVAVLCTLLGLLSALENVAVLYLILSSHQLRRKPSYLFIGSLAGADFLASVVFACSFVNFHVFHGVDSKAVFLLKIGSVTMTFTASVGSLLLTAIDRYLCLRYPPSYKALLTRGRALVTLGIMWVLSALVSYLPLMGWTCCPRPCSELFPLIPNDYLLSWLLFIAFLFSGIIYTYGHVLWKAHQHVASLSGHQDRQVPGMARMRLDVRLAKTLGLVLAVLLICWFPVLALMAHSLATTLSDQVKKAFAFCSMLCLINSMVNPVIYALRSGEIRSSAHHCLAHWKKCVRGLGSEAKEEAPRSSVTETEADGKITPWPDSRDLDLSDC
T20 sequence (P0DMS8 whole entry): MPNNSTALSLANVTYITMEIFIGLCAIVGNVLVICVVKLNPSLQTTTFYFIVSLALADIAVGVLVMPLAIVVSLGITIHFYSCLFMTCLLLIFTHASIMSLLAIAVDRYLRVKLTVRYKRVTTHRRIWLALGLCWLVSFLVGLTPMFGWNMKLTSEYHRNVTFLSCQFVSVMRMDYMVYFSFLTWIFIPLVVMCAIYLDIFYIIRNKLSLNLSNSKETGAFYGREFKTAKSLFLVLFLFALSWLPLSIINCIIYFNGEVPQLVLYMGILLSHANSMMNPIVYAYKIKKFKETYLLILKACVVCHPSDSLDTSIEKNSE
T15 sequence (Q9Y271 whole entry): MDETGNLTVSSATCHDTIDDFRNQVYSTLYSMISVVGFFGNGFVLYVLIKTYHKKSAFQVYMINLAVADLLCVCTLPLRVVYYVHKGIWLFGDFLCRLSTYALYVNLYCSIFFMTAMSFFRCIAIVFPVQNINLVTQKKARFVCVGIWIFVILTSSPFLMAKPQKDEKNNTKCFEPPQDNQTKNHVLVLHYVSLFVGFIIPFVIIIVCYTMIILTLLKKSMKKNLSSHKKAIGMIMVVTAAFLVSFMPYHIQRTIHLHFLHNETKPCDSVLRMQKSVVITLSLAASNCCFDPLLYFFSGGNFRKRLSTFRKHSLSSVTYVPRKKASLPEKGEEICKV
T16 sequence (P37288 whole entry): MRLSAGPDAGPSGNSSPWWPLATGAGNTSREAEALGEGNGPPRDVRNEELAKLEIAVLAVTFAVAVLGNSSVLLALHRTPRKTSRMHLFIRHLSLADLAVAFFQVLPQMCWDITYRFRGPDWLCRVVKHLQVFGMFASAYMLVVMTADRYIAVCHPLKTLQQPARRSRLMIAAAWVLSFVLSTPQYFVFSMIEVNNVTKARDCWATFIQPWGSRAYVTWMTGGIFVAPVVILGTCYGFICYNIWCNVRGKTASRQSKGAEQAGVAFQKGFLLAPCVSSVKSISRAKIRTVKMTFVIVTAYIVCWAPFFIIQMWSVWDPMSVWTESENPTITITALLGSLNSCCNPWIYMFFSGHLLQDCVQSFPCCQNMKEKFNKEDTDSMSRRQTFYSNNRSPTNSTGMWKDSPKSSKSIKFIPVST
T2 sequence (P29371 whole entry): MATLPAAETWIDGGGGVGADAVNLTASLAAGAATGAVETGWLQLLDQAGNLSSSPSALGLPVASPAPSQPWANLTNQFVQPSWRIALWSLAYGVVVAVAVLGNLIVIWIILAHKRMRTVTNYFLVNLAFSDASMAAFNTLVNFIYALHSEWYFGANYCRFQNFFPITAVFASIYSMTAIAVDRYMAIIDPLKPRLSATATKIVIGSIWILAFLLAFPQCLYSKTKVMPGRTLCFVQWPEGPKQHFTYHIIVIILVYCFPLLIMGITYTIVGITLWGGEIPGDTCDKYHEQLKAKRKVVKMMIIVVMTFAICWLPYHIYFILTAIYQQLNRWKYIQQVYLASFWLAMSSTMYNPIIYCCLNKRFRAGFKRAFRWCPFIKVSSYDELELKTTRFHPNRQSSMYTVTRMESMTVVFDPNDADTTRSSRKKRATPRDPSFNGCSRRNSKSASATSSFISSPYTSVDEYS
T8 sequence (P06401 whole entry): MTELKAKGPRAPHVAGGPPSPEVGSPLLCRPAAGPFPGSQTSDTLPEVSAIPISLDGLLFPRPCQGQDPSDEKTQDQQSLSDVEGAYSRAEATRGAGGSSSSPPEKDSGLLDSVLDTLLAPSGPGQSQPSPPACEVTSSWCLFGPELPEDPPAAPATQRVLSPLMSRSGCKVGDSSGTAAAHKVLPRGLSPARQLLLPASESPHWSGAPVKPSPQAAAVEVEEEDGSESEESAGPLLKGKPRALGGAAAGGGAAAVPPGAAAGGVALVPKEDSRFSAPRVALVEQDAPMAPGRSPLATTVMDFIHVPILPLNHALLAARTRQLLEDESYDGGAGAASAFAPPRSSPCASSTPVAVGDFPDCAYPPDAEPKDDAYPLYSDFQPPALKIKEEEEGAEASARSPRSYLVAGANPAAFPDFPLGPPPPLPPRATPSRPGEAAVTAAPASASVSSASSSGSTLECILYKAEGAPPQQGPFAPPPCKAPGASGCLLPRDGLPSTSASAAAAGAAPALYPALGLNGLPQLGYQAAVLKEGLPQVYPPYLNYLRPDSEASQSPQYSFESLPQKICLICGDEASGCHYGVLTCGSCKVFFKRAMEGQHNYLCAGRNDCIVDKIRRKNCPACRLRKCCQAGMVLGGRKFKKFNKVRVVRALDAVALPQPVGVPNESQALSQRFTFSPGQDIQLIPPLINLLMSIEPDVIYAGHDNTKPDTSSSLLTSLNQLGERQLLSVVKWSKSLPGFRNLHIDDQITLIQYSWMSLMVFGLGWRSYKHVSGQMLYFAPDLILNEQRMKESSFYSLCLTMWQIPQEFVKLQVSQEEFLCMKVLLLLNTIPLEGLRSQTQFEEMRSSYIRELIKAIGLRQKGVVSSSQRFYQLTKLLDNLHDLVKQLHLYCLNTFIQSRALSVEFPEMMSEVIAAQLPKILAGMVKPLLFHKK
T12 sequence (Q9Y5N1 whole entry): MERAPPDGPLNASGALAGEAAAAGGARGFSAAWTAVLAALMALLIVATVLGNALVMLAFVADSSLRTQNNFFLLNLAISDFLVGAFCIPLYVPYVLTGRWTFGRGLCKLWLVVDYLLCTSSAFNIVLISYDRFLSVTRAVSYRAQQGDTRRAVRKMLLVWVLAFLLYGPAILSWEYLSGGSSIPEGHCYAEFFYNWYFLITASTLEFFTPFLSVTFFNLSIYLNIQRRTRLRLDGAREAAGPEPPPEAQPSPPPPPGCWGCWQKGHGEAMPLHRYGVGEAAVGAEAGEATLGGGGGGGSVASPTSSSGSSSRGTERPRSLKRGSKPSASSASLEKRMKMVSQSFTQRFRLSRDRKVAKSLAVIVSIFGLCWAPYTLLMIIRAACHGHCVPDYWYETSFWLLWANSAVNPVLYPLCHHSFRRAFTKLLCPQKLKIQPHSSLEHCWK
T9 sequence (P29274 whole entry): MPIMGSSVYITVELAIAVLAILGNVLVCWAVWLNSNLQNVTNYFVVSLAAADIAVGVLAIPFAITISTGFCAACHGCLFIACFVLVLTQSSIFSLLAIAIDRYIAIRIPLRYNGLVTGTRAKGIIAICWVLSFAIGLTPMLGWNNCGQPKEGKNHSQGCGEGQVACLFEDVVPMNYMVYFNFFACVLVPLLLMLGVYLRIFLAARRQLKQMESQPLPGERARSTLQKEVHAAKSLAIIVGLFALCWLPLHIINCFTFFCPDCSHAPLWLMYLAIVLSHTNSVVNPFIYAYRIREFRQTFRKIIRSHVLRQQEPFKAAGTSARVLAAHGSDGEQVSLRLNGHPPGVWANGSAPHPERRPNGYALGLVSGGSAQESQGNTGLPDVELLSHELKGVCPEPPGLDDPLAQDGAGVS
T4 sequence (P32239 whole entry): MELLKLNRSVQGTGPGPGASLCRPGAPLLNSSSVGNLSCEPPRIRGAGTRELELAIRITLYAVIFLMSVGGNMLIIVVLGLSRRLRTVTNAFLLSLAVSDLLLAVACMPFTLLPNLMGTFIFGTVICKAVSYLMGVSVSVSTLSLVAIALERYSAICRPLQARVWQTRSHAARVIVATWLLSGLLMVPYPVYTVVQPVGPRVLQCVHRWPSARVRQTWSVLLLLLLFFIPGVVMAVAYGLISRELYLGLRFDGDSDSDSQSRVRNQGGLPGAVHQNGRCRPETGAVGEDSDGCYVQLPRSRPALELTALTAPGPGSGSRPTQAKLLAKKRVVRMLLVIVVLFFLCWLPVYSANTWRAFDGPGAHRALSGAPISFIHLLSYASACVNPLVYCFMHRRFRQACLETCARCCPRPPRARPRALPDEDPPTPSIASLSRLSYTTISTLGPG
T10 sequence (Q15722 whole entry): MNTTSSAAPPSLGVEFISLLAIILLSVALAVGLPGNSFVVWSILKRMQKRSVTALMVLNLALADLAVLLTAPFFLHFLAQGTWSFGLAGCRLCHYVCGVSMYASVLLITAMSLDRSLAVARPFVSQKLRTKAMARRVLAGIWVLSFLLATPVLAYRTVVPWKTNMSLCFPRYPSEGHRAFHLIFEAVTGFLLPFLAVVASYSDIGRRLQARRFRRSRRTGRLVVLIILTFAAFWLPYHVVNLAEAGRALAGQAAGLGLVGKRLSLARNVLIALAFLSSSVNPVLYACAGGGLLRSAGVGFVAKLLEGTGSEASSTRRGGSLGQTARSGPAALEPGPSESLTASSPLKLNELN
T5 sequence (P07550 whole entry): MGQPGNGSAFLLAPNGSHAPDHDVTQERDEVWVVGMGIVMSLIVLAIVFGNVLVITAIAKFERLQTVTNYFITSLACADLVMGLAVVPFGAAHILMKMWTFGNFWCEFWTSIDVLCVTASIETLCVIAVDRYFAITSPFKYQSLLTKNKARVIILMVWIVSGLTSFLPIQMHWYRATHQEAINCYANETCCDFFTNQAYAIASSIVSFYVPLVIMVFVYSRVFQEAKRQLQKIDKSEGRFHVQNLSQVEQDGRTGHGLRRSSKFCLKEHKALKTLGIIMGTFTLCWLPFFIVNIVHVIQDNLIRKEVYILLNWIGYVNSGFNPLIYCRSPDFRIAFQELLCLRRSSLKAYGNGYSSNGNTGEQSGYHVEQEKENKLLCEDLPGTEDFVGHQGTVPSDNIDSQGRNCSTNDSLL

Structure (SMILES): Nc1ccccc1NC(=O)CCCCCC(=O)Nc1ccccc1 [Compound 4b]
- parent remaining ([1]; after 40 min incubation with mouse hepatic microsomes): 16%
- predicted in vivo plasma clearance [1]: 43.3 mL/min/kg
- predicted clearance as share of liver plasma flow ([1]; mouse): approximately 87%
- half-life at 1 µM [1, 2]: ~20 min
- inhibition at 10 µM (CCK1 (CCKA) (h)): 72%
- Ki (CCK1 (CCKA) (h); follow up concentration-effect curve): 8.6 µM
- inhibition at 10 µM (NK3 (h)): 0%
- inhibition at 10 µM (AT2 (h)): 4%
- inhibition at 10 µM (CCK2 (CCKB) (h)): 0%
- inhibition at 10 µM (2 (h)): 2%
- inhibition at 10 µM (MC4 (h)): 1%
- inhibition at 10 µM (PPAR (h)): 13%
- inhibition at 10 µM (PR (h)): 0%
- inhibition at 10 µM (A2A (h)): 0%
- inhibition at 10 µM (BLT1 (LTB4) (h)): 2%
- inhibition at 10 µM (NK2 (h)): 5%
- inhibition at 10 µM (H3 (h)): 0%
- inhibition at 10 µM (CB1 (h)): 7%
- inhibition at 10 µM (TRH1 (h)): 9%
- inhibition at 10 µM (CysLT1 (LTD4) (h)): 0%
- % inhibition of control specific binding (GABA (non‐selective)): 14%
- inhibition at 10 µM (V1a (h)): 10%
- inhibition at 10 µM (V2 (h)): 6%
- inhibition at 10 µM (CB2 (h)): 0%
- inhibition at 10 µM (EP2 (h)): 15%
- inhibition at 10 µM (A3 (h)): 8%
- inhibition at 10 µM (NK1 (h)): 7%
- % inhibition of control specific binding (ER (non‐selective) (h)): 2%

Structure (SMILES): O=C(CCCCCc1nc2ccccc2[nH]1)Nc1ccccc1 [Compound C1, 6-(1-H-benzo[d]imidazol-2-yl)-N-phenylhexanamide]
- concentration of C1 in incubations with 4b ([1]; all incubations with 4b, below the limit of quantification): < 100 nM
- predicted in vivo plasma clearance [1]: > 48.2 mL/min/kg
- half-life at 1 µM [1, 2]: < 5 min
- half-life at 1 µM ([1]; mouse, without NADPH, read-out: in vitro half-life in liver microsomes): 7 min
- inhibition at 10 µM (CCK1 (CCKA) (h)): 68%
- IC50 (CCK1 (CCKA) (h); read-out: IC50, displacement of CCK1 agonist radioligand binding): 6.1 µM
- inhibition at 10 µM (NK3 (h); 10 μM): 4%
- inhibition at 10 µM (AT2 (h); 10 μM): 12%
- inhibition at 10 µM (CCK2 (CCKB) (h); 10 μM): 3%
- inhibition at 10 µM (2 (h); 10 μM): 2%
- inhibition at 10 µM (MC4 (h); 10 μM): 0%
- inhibition at 10 µM (PPAR (h); 10 μM): 13%
- inhibition at 10 µM (PR (h); 10 μM): 1%
- inhibition at 10 µM (A2A (h); 10 μM): 9%
- inhibition at 10 µM (BLT1 (LTB4) (h); 10 μM): 0%
- inhibition at 10 µM (NK2 (h); 10 μM): 9%
- inhibition at 10 µM (H3 (h); 10 μM): 8%
- inhibition at 10 µM (CB1 (h); 10 μM): 18%
- inhibition at 10 µM (TRH1 (h); 10 μM): 1%
- inhibition at 10 µM (CysLT1 (LTD4) (h); 10 μM): 0%
- % inhibition of control specific binding (GABA (non‐selective)): 5%
- inhibition at 10 µM (V1a (h); 10 μM): 11%
- inhibition at 10 µM (V2 (h); 10 μM): 5%
- inhibition at 10 µM (CB2 (h); 10 μM): 3%
- inhibition at 10 µM (EP2 (h); 10 μM): 24%
- inhibition at 10 µM (A3 (h); 10 μM): 11%
- inhibition at 10 µM (NK1 (h); 10 μM): 9%
- % inhibition of control specific binding (ER (non‐selective) (h)): 4%
